Consider 1 compound from patent publication US12077503B2, “Substituted cyclic amides and their use as herbicides” (FMC CORPORATION, priority 2015, dated 2024).

What all share (format): in vivo
The test system of experiment [1] is pigweed (Amaranthus retroflexus). The experiment is described as follows: Test A preemergence. The conditions noted are these: Amaranthus retroflexus, pre-emergence, 240 h.
Experiment [2] has as its system Galium (catchweed bedstraw, Galium aparine). The experiment is described as follows: Test A postemergence. The conditions noted are these: Galium, post-emergence, 240 h, 125 g ai/ha, postemergence, visual injury rating after approximately 10 d; read-out: Galium plant response rating (0 to 100 scale, 0 no effect, 100 complete control). In a few lines: (§1)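 Greenhouse, ~10 d after spray; visual injury vs untreated controls, 0 = no effect, 100 = complete control. Preemergence: directed soil spray over planted seeds. Postemergence: plants 2–10 cm, 1–2 leaf stage. Loam/sand blend. Compound in non-phytotoxic solvent with surfactant.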

A further experiment has as its system Kochia (Kochia scoparia). The experiment is described as follows: Test A postemergence. The conditions noted are these: Bassia scoparia, post-emergence, 240 h, 125 g ai/ha, postemergence, visual injury rating after approximately 10 d; read-out: Kochia plant response rating (0 to 100 scale, 0 no effect, 100 complete control). In a few lines:
as §1

The test system of experiment [3] is barnyardgrass (Echinochloa crus-galli). The experiment is described as follows: Test A postemergence. The conditions noted are these: Echinochloa crus-galli, post-emergence, 240 h, 125 g ai/ha, postemergence, visual injury rating after approximately 10 d; read-out: Barnyardgrass plant response rating (0 to 100 scale, 0 no effect, 100 complete control). In a few lines:
as §1

Experiment [4] deals with blackgrass (Alopecurus myosuroides). The experiment is described as follows: Test A postemergence. The conditions noted are these: Alopecurus myosuroides, post-emergence, 240 h, 125 g ai/ha, postemergence, visual injury rating after approximately 10 d; read-out: Blackgrass plant response rating (0 to 100 scale, 0 no effect, 100 complete control). The procedure, abridged:
as §1

A further experiment has as its system corn (Zea mays). Briefly: Test A postemergence. The conditions noted are these: Zea mays, post-emergence, 240 h, 125 g ai/ha, postemergence, visual injury rating after approximately 10 d; read-out: Corn plant response rating (0 to 100 scale, 0 no effect, 100 complete control). The procedure, abridged:
as §1

Experiment [5] relates to giant foxtail (Setaria faberii). The experiment is described as follows: Test A postemergence. The conditions noted are these: Setaria faberi, post-emergence, 240 h, 125 g ai/ha, postemergence, visual injury rating after approximately 10 d; read-out: Foxtail, Giant plant response rating (0 to 100 scale, 0 no effect, 100 complete control). In a few lines:
as §1

Experiment [6] has as its system pigweed (Amaranthus retroflexus). The experiment is described as follows: Test A postemergence. The conditions noted are these: Amaranthus retroflexus, post-emergence, 240 h, 125 g ai/ha, postemergence, visual injury rating after approximately 10 d; read-out: Pigweed plant response rating (0 to 100 scale, 0 no effect, 100 complete control). The procedure, abridged:
as §1

The test system of experiment [7] is ragweed (common ragweed, Ambrosia elatior). The experiment is described as follows: Test A postemergence. The conditions noted are these: Ambrosia artemisiifolia, post-emergence, 240 h, 125 g ai/ha, postemergence, visual injury rating after approximately 10 d; read-out: Ragweed plant response rating (0 to 100 scale, 0 no effect, 100 complete control). The procedure, abridged:
as §1

For experiment [8], the system named is ryegrass, Italian (Italian ryegrass, Lolium multiflorum). The experiment is described as follows: Test A postemergence. The conditions noted are these: Lolium multiflorum, post-emergence, 240 h, 125 g ai/ha, postemergence, visual injury rating after approximately 10 d; read-out: Ryegrass, Italian plant response rating (0 to 100 scale, 0 no effect, 100 complete control). In a few lines: as §1

Experiment [9] concerns wheat (Triticum aestivum). Briefly: Test A postemergence. The conditions noted are these: Triticum aestivum, post-emergence, 240 h, 125 g ai/ha, postemergence, visual injury rating after approximately 10 d; read-out: Wheat plant response rating (0 to 100 scale, 0 no effect, 100 complete control). In a few lines: as §1
Experiment [10] deals with barnyardgrass (Echinochloa crus-galli). Briefly: Test B flooded paddy test. The conditions noted are these: Echinochloa crus-galli, Flood, 250 g ai/ha; scale of 0 to 100 where 0 is no effect and 100 is complete control; read-out: Barnyardgrass plant response rating. In a few lines:
(§2)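 2-leaf plants; pots flooded 3 cm over soil; cpd added to paddy water; depth held; greenhouse 13–15 d; visual rating vs controls, 0 = no effect, 100 = complete control.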

Experiment [11] deals with ducksalad (Heteranthera limosa). The experiment is described as follows: Test B flooded paddy test. The conditions noted are these: Heteranthera limosa, Flood, 250 g ai/ha; scale of 0 to 100 where 0 is no effect and 100 is complete control; read-out: Ducksalad plant response rating. In a few lines: as §2
For a further experiment, the system named is rice (Oryra sativa). Briefly: Test B flooded paddy test. The conditions noted are these: Oryza sativa, Flood, 250 g ai/ha; scale of 0 to 100 where 0 is no effect and 100 is complete control; read-out: Rice plant response rating. The procedure, abridged: as §2
Experiment [12] relates to sedge, umbrella (small-flower umbrella sedge, Cyperus difformis). Briefly: Test B flooded paddy test. The conditions noted are these: Cyperus difformis, Flood, 250 g ai/ha; scale of 0 to 100 where 0 is no effect and 100 is complete control; read-out: Sedge, Umbrella plant response rating. The procedure, abridged: as §2

Molecules are shown by their SMILES.

Regarding `CCOc1ccc([C@H]2CNC(=O)[C@@H]2C(=O)Nc2cccc(F)c2F)cc1` [Compound 907], the pest or weed control at 125 g/ha in [1] (125 g ai/ha, preemergence, 0 to 100 scale where 0 is no effect and 100 is complete control, read-out: Pigweed plant response rating) was 0%; in experiment [2] it was 0%; in the experiment with Kochia (Kochia scoparia) it was 0%; in [3], 50%; in experiment [4], 0%; in experiment [5] it was 60%. The pest or weed control at 125 g/ha in [6], in experiment [7] and in experiment [8] was 0% each time. In experiment [1] (500 g ai/ha, Preemergence, visual injury vs untreated controls after approximately 10 d, read-out: Pigweed plant response rating (0 to 100 scale where 0 is no effect and 100 is complete control)), the pest or weed control at 500 g/ha amounted to 0%. The plant injury at 125 g/ha (with corn (Zea mays); in experiment [9]) was 0% each time. The pest or weed control at 250 g/ha was 0% in experiment [10], 50% in [11], 0% in the experiment with rice (Oryra sativa) and 0% in experiment [12].
